system: HEK293-STF3A cells; assay: STF3A assay (STF luciferase reporter in Wnt3A-expressing HEK293 cells); assay type: cell-based; settings: Homo sapiens, 24 h, 1 day of treatment
Procedure, shortened: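 HEK293 cells carrying the STF reporter and expressing Wnt3A, seeded 2×10^4 per well overnight, then treated 1 day with compound at final 50 μM to 1.5 nM. Luciferase activity read by luminescence after Steady-Glo reagent, 10 min at room temperature.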

`Cc1ccc(-c2ccc(NC(=O)CN3CCCC4=C3C(=O)N(C3CC3)C4=O)nn2)cn1` [Compound 86, 2-(6-cyclopropyl-5,7-dioxo-2,3,4,5,6,7-hexahydro-1H-pyrrolo[3,4-b]pyridin-1-yl)-N-(6-(6-methylpyridin-3-yl)pyridazin-3-yl)acetamide] and `Cc1cncc(-c2ccc(NC(=O)CN3CCCC4=C3C(=O)N(C3CC3)C4=O)nc2)n1` [Compound 128, 2-(6-cyclopropyl-5,7-dioxo-2,3,4,5,6,7-hexahydro-1H-pyrrolo[3,4-b]pyridin-1-yl)-N-(5-(6-methylpyrazin-2-yl)pyridin-2-yl)acetamide] cannot be ordered by IC50: under 100 nM for the first, under 100 nM for the second.

`O=C(CN1CCCC2=C1C(=O)N(C1CC1)C2=O)Nc1ccc(-c2cncc(F)c2)nc1` [Compound 87, 2-(6-cyclopropyl-5,7-dioxo-2,3,4,5,6,7-hexahydro-1H-pyrrolo[3,4-b]pyridin-1-yl)-N-(5′-fluoro-[2,3′-bipyridin]-5-yl)acetamide] and `O=C(CN1CCCC2=C1C(=O)N(C1CC1)C2=O)Nc1ccc(-c2cncnc2)nc1` [Compound 102, 2-(6-cyclopropyl-5,7-dioxo-2,3,4,5,6,7-hexahydro-1H-pyrrolo[3,4-b]pyridin-1-yl)-N-(6-(pyrimidin-5-yl)pyridin-3-yl)acetamide] cannot be ordered by IC50: under 100 nM for the first, under 100 nM for the second.

`CN1C(=O)C2=C(C1=O)N(CC(=O)Nc1ccc(-c3ccncc3)cn1)CCC2` [Compound 88, N-([3,4′-bipyridin]-6-yl)-2-(6-methyl-5,7-dioxo-2,3,4,5,6,7-hexahydro-1H-pyrrolo[3,4-b]pyridin-1-yl)acetamide] and `CN1C(=O)C2=C(C1=O)N(CC(=O)Nc1ccc(-c3ccncc3)nc1)CCC2` [Compound 122, N-(2,4′-bipyridin-5-yl)-2-(6-methyl-5,7-dioxo-2,3,4,5,6,7-hexahydro-1H-pyrrolo[3,4-b]pyridin-1-yl)acetamide] cannot be ordered by IC50: under 1000 nM for the first, under 1000 nM for the second.

`O=C(CN1CCCC2=C1C(=O)N(C1CC1)C2=O)Nc1ccc(-c2cncnc2)cn1` [Compound 89, 2-(6-cyclopropyl-5,7-dioxo-2,3,4,5,6,7-hexahydro-1H-pyrrolo[3,4-b]pyridin-1-yl)-N-(5-(pyrimidin-5-yl)pyridin-2-yl)acetamide] and `O=C(CN1CCCC2=C1C(=O)N(C1CC1)C2=O)Nc1ccc(-c2cncc(F)c2)cn1` [Compound 106, 2-(6-cyclopropyl-5,7-dioxo-2,3,4,5,6,7-hexahydro-1H-pyrrolo[3,4-b]pyridin-1-yl)-N-(5′-fluoro-[3,3′-bipyridin]-6-yl)acetamide] cannot be ordered by IC50: under 100 nM for the first, under 100 nM for the second.

`O=C(CN1CCCC2=C1C(=O)N(C1CC1)C2=O)Nc1ccc(-c2cncnc2)cc1` [Compound 90, 2-(6-cyclopropyl-5,7-dioxo-2,3,4,5,6,7-hexahydro-1H-pyrrolo[3,4-b]pyridin-1-yl)-N-(4-(pyrimidin-5-yl)phenyl)acetamide] and `O=C(CN1CCCC2=C1C(=O)N(C1CC1)C2=O)Nc1ccc(-c2ccc(F)nc2)nc1` [Compound 124, 2-(6-cyclopropyl-5,7-dioxo-2,3,4,5,6,7-hexahydro-1H-pyrrolo[3,4-b]pyridin-1-yl)-N-(6′-fluoro-[2,3′-bipyridin]-5-yl)acetamide] cannot be ordered by IC50: under 100 nM for the first, under 100 nM for the second.

`CC(C(=O)Nc1ccc(-c2ccc(F)nc2)cn1)N1CCCC2=C1C(=O)N(C)C2=O` (stereo not drawn) [Compound 96, N-(6′-fluoro-3,3′-bipyridin-6-yl)-2-(6-methyl-5,7-dioxo-2,3,4,5,6,7-hexahydro-1H-pyrrolo[3,4-b]pyridin-1-yl)propanamide] and `CC(C(=O)Nc1ccc(-c2cccnc2F)cn1)N1CCCC2=C1C(=O)N(C)C2=O` (stereo not drawn) [Compound 97, N-(2′-fluoro-3,3′-bipyridin-6-yl)-2-(6-methyl-5,7-dioxo-2,3,4,5,6,7-hexahydro-1H-pyrrolo[3,4-b]pyridin-1-yl)propanamide] cannot be ordered by IC50: under 1000 nM for the first, under 100 nM for the second.

`COc1cc(NC(=O)CN2CCCC3=C2C(=O)N(C)C3=O)ccc1-c1ccccc1` [Compound 99, N-(2-methoxy-[1,1′-biphenyl]-4-yl)-2-(6-methyl-5,7-dioxo-2,3,4,5,6,7-hexahydro-1H-pyrrolo[3,4-b]pyridin-1-yl)acetamide] and `Cc1nc(NC(=O)CN2CCCC3=C2C(=O)N(C)C3=O)ccc1-c1cccnc1` [Compound 112] cannot be ordered by IC50: under 10000 nM for the first, under 10000 nM for the second.

`CN1C(=O)C2=C(C1=O)N(CC(=O)Nc1ccc(-c3cncc(F)c3)nc1)CCC2` [Compound 100, N-(5′-fluoro-[2,3′-bipyridin]-5-yl)-2-(6-methyl-5,7-dioxo-2,3,4,5,6,7-hexahydro-1H-pyrrolo[3,4-b]pyridin-1-yl)acetamide] and `CN1C(=O)C2=C(C1=O)N(CC(=O)Nc1ccc(-c3cncnc3)nc1)CCC2` [Compound 103, 2-(6-methyl-5,7-dioxo-2,3,4,5,6,7-hexahydro-1H-pyrrolo[3,4-b]pyridin-1-yl)-N-(6-(pyrimidin-5-yl)pyridin-3-yl)acetamide] cannot be ordered by IC50: under 100 nM for the first, under 1000 nM for the second.

`CN1C(=O)C2=C(C1=O)N(CC(=O)Nc1ccc(-c3cncnc3)cn1)CCC2` [Compound 101, 2-(6-methyl-5,7-dioxo-2,3,4,5,6,7-hexahydro-1H-pyrrolo[3,4-b]pyridin-1-yl)-N-(5-(pyrimidin-5-yl)pyridin-2-yl)acetamide] and `Cc1cncc(-c2ccc(NC(=O)CN3CCCC4=C3C(=O)N(C)C4=O)nc2)n1` [Compound 129, 2-(6-methyl-5,7-dioxo-2,3,4,5,6,7-hexahydro-1H-pyrrolo[3,4-b]pyridin-1-yl)-N-(5-(6-methylpyrazin-2-yl)pyridin-2-yl)acetamide] cannot be ordered by IC50: under 100 nM for the first, under 100 nM for the second.

`O=C(CN1CCCC2=C1C(=O)N(C1CC1)C2=O)Nc1ccc(-c2cccnc2F)cn1` [Compound 104, 2-(6-cyclopropyl-5,7-dioxo-2,3,4,5,6,7-hexahydro-1H-pyrrolo[3,4-b]pyridin-1-yl)-N-(2′-fluoro-[3,3′-bipyridin]-6-yl)acetamide] and `Cc1ncccc1-c1ccc(NC(=O)CN2CCCC3=C2C(=O)N(C2CC2)C3=O)nc1` [Compound 110, 2-(6-cyclopropyl-5,7-dioxo-2,3,4,5,6,7-hexahydro-1H-pyrrolo[3,4-b]pyridin-1-yl)-N-(2′-methyl-[3,3′-bipyridin]-6-yl)acetamide] cannot be ordered by IC50: under 100 nM for the first, under 1000 nM for the second.

`O=C(CN1CCCC2=C1C(=O)N(C1CC1)C2=O)Nc1ccc(-c2ccc(F)nc2)cn1` [Compound 105, 2-(6-cyclopropyl-5,7-dioxo-2,3,4,5,6,7-hexahydro-1H-pyrrolo[3,4-b]pyridin-1-yl)-N-(6′-fluoro-[3,3′-bipyridin]-6-yl)acetamide] and `O=C(CN1CCCC2=C1C(=O)N(C1CC1)C2=O)Nc1ccc(-c2ccc(F)cn2)cn1` [Compound 127, 2-(6-cyclopropyl-5,7-dioxo-2,3,4,5,6,7-hexahydro-1H-pyrrolo[3,4-b]pyridin-1-yl)-N-(5-fluoro-[2,3′-bipyridin]-6′-yl)acetamide] cannot be ordered by IC50: under 100 nM for the first, under 100 nM for the second.

`O=C(CN1CCCC2=C1C(=O)N(C1CC1)C2=O)Nc1ncc(-c2cccnc2)cc1F` [Compound 107, 2-(6-cyclopropyl-5,7-dioxo-2,3,4,5,6,7-hexahydro-1H-pyrrolo[3,4-b]pyridin-1-yl)-N-(5-fluoro-[3,3′-bipyridin]-6-yl)acetamide] and `Cc1cc(NC(=O)CN2CCCC3=C2C(=O)N(C2CC2)C3=O)ncc1-c1cccnc1` [Compound 120, 2-(6-cyclopropyl-5,7-dioxo-2,3,4,5,6,7-hexahydro-1H-pyrrolo[3,4-b]pyridin-1-yl)-N-(4-methyl-[3,3′-bipyridin]-6-yl)acetamide] cannot be ordered by IC50: under 1000 nM for the first, under 1000 nM for the second.

`CN1C(=O)C2=C(C1=O)N(CC(=O)Nc1ccc(-c3ccc(F)nc3)nc1)CCC2` [Compound 108, N-(6′-fluoro-[2,3′-bipyridin]-5-yl)-2-(6-methyl-5,7-dioxo-2,3,4,5,6,7-hexahydro-1H-pyrrolo[3,4-b]pyridin-1-yl)acetamide] and `CN1C(=O)C2=C(C1=O)N(CC(=O)Nc1ccc(-c3cnccn3)cc1)CCC2` [Compound 118, 2-(6-methyl-5,7-dioxo-2,3,4,5,6,7-hexahydro-1H-pyrrolo[3,4-b]pyridin-1-yl)-N-(4-(pyrazin-2-yl)phenyl)acetamide] cannot be ordered by IC50: under 1000 nM for the first, under 100 nM for the second.

`Cc1ccncc1-c1ccc(NC(=O)CN2CCCC3=C2C(=O)N(C2CC2)C3=O)nc1` [Compound 111, 2-(6-cyclopropyl-5,7-dioxo-2,3,4,5,6,7-hexahydro-1H-pyrrolo[3,4-b]pyridin-1-yl)-N-(4′-methyl-[3,3′-bipyridin]-6-yl)acetamide] and `Cc1nc(NC(=O)CN2CCCC3=C2C(=O)N(C2CC2)C3=O)ccc1-c1cccnc1` [Compound 125, 2-(6-cyclopropyl-5,7-dioxo-2,3,4,5,6,7-hexahydro-1H-pyrrolo[3,4-b]pyridin-1-yl)-N-(2-methyl-[3,3′-bipyridin]-6-yl)acetamide] cannot be ordered by IC50: under 1000 nM for the first, under 1000 nM for the second.

First: Cc1cc(-c2cccnc2)cnc1NC(=O)CN1CCCC2=C1C(=O)N(C)C2=O [Compound 113, 2-(6-methyl-5,7-dioxo-2,3,4,5,6,7-hexahydro-1H-pyrrolo[3,4-b]pyridin-1-yl)-N-(5-methyl-[3,3′-bipyridin]-6-yl)acetamide]
Second: Cc1cc(NC(=O)CN2CCCC3=C2C(=O)N(C)C3=O)ncc1-c1cccnc1 [Compound 114, 2-(6-methyl-5,7-dioxo-2,3,4,5,6,7-hexahydro-1H-pyrrolo[3,4-b]pyridin-1-yl)-N-(4-methyl-[3,3′-bipyridin]-6-yl)acetamide]
The IC50 of the first is higher: over 10000 nM for the first, under 5000 nM for the second. The second is the more potent here.

Compared with `CC(C(=O)Nc1cc(F)c(-c2cccnc2)cn1)N1CCCC2=C1C(=O)N(C)C2=O` (stereo not drawn) [Compound 119, N-(4-fluoro-3,3′-bipyridin-6-yl)-2-(6-methyl-5,7-dioxo-2,3,4,5,6,7-hexahydro-1H-pyrrolo[3,4-b]pyridin-1-yl)propanamide], `Cc1nc(-c2cccnc2)ccc1NC(=O)CN1CCCC2=C1C(=O)N(C1CC1)C2=O` [Compound 123, 2-(6-cyclopropyl-5,7-dioxo-2,3,4,5,6,7-hexahydro-1H-pyrrolo[3,4-b]pyridin-1-yl)-N-(6-methyl-2,3′-bipyridin-5-yl)acetamide] is higher in IC50: under 100 nM for the first, over 10000 nM for the second. The first is the more potent here.

`Cc1ncccc1-c1ccc(NC(=O)CN2CCCC3=C2C(=O)N(C2CC2)C3=O)cn1` [Compound 121, 2-(6-cyclopropyl-5,7-dioxo-2,3,4,5,6,7-hexahydro-1H-pyrrolo[3,4-b]pyridin-1-yl)-N-(2′-methyl-2,3′-bipyridin-5-yl)acetamide] showed an IC50 of under 100 nM.
